Columns and labels:
[1] = Cytotoxicity in MDBK cells assessed as reduction in cell viability; format: cell-based, Bos taurus; conditions: cattle
[2] = test system: Bovine viral diarrhea virus 1; test: Antiviral activity against BVDV1 Nose infected in MDBK cells assessed as inhibition of virus replication-induced cell destruction; format: functional, organism-based; conditions: Bovine viral diarrhea virus isolates and strains
[3] = Selectivity index, ratio of CC50 for MDBK cells to EC50 for antiviral activity against BVDV1 Nose

| EC50 [2] [µM] | Structure (SMILES) | CC50 [1] [µM] | Ratio CC50/EC50 [3] |
| --- | --- | --- | --- |
| 12.8 | Cc1cc([Si](C)(C)c2ccc(OCC(=O)C(C)(C)C)c(C)c2)ccc1OCC(=O)C(C)(C)C | > 100 |  |
| 28 | CCC(CC)(c1ccc(OCC(=O)C(C)(C)C)c(C)c1)c1ccc(N(CC(=O)C(C)(C)C)Cc2ccccc2)c(C)c1 | > 100 |  |
| 8.9 | CCC(CC)(c1ccc(NCC(=O)C(C)(C)C)c(C)c1)c1ccc(OCC(=O)C(C)(C)C)c(C)c1 | 82 | 9.21 |
| 8.4 | CC[Si](CC)(c1ccc(OCC(=O)C(C)(C)C)c(C)c1)c1ccc(OCC(=O)C(C)(C)C)c(C)c1 | > 100 |  |
| 13 | Cc1cc(C2(c3ccc(OCC(=O)C(C)(C)C)c(C)c3)CCCC2)ccc1OCC(=O)C(C)(C)C | > 100 |  |
| 12 | Cc1cc(C(C)(C)c2ccc(OCC(=O)C(C)(C)C)c(C)c2)ccc1OCC(=O)C(C)(C)C | > 100 |  |
| 8 | CC[Si](CC)(c1ccc(O)cc1)c1ccc(OCC(=O)C(C)(C)C)cc1 | 46.8 | 5.85 |
| 10 | CCN(CC)C(=O)Oc1ccc(C(CC)(CC)c2ccc(NC(C)=O)c(C)c2)cc1C | 50 | 5 |
| 6.3 | Cc1cc(C2(c3ccc(OCC(=O)C(C)(C)C)c(C)c3)CCC2)ccc1OCC(=O)C(C)(C)C | > 100 |  |
| > 42 | Nc1ccc(C2(c3ccc(O)cc3)CCCCC2)cc1 | 42 |  |
| 25 | CCC(CC)(c1ccc(NCC(O)C(C)(C)C)c(C)c1)c1ccc(OC[C@@H](O)CO)c(C)c1 (stereo partly drawn) | 43 | 1.72 |
| 6.2 | CC[Si](CC)(c1ccc(OCC(=O)C(C)(C)C)cc1)c1ccc(OCC(=O)C(C)(C)C)cc1 | > 100 |  |
| 8.6 | CCC(CC)(c1ccc(O)c(C)c1)c1ccc(OCC(=O)C(C)(C)C)c(C)c1 | 5.23 |  |

| Structure (SMILES) | EC50 [2] [µM] | CC50 [1] [µM] | Ratio CC50/EC50 [3] |
| --- | --- | --- | --- |
| CCC(CC)(c1ccc(O)cc1)c1ccc(O)cc1 | 10 | 39 | 3.9 |

— ChEMBL document CHEMBL1782006, “Discovery of diphenylmethane analogs as anti-bovine diarrhea viral agents” (Bioorg Med Chem Lett, 2009)
